The target of the experiment is T1, CHK1 (Homo sapiens, UniProt O14757).
T1 construct: His; purchased Invitrogen
T1 sequence (O14757 1-476): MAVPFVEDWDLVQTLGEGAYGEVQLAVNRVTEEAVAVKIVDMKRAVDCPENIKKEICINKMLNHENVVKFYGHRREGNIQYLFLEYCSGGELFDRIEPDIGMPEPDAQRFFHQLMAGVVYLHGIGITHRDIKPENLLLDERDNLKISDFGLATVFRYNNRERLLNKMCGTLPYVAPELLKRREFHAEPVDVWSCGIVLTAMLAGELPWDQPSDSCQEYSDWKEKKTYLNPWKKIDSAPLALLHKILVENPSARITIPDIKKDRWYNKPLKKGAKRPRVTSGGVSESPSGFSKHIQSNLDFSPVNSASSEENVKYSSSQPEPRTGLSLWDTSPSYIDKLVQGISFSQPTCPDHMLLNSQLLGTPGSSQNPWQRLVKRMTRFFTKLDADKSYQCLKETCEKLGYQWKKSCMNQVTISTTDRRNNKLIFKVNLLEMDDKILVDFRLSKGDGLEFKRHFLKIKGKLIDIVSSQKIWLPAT
The experiment is described as follows: CHK1 Enzyme Assay (phosphorylation of Chktide peptide, 33P-ATP filter assay). Format: biochemical. As to conditions: 12.5 nM His-CHK1, 0.01 mM ATP, 40 minutes at 30° C.; read-out: CHK1 Enzyme Activity (IC50 range). Put shortly: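 His-CHK1 (12.5 nM) phosphorylating 14.8 μM Chktide with 0.01 mM ATP plus 33P-γ-ATP, in 50 mM Hepes-NaOH pH 7.5 with 0.1 mg/mL BSA. Incubated with inhibitor for 40 min at 30 °C. Stopped with phosphoric acid; phosphopeptide captured on filter and counted by scintillation.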

A value given as a limit tells only on which side of the number the result lay.

By IC50 is commonly meant the concentration that inhibits the measured activity by half. As to `Cc1ccc(Cn2cc(C(=O)Nc3c[nH]c(=O)c(-c4cc5cc(OCCCN6CCN(C)CC6)ccc5[nH]4)c3)cn2)cc1` [Example 124], the half-maximal inhibitory concentration (IC50) was less than 100 nM.

Consider `CCN(CC)CCOc1ccc2[nH]c(-c3cc(NC(=O)c4cnn(Cc5ccc(C)cc5)c4)c[nH]c3=O)cc2c1` [Example 125, 1-(4-Methyl-benzyl)-1H-pyrazole-4-carboxylic acid {5-[5-(2-diethylamino-ethoxy)-1H-indol-2-yl]-6-oxo-1,6-dihydro-pyridin-3-yl}-amide], for which the concentration for half-maximal inhibition (IC50) is less than 100 nM.

Turning to `Cc1ccc(Cn2cc(C(=O)Nc3c[nH]c(=O)c(-c4cc5cc(OCCN6CCN(C)CC6)ccc5[nH]4)c3)cn2)cc1` [Example 126, 1-(4-Methyl-benzyl)-1H-pyrazole-4-carboxylic acid (5-{5-[2-(4-methyl-piperazin-1-yl)-ethoxy]-1H-indol-2-yl}-6-oxo-1,6-dihydro-pyridin-3-yl)-amide], the IC50 was less than 100 nM.

With `CCc1cccc(Cn2cc(C(=O)Nc3c[nH]c(=O)c(-c4cc5cc(OCCCN6CCN(C)CC6)ccc5[nH]4)c3)cn2)c1` [Example 127, 1-(3-Ethyl-benzyl)-1H-pyrazole-4-carboxylic acid (5-{5-[3-(4-methyl-piperazin-1-yl)-propoxy]-1H-indol-2-yl}-6-oxo-1,6-dihydro-pyridin-3-yl)-amide], the IC50 was less than 100 nM.

`CCc1cccc(Cn2cc(C(=O)Nc3c[nH]c(=O)c(-c4cc5cc(OCCN(C)C)ccc5[nH]4)c3)cn2)c1` [Example 128, 1-(3-Ethyl-benzyl)-1H-pyrazole-4-carboxylic acid {5-[5-(2-dimethylamino-ethoxy)-1H-indol-2-yl]-6-oxo-1,6-dihydro-pyridin-3-yl}-amide]: the half-maximal inhibitory concentration (IC50) is less than 100 nM.

Turning to `CCc1cccc(Cn2cc(C(=O)Nc3c[nH]c(=O)c(-c4cc5cc(OCCCN(C)C)ccc5[nH]4)c3)cn2)c1` [Example 129, 1-(3-Ethyl-benzyl)-1H-pyrazole-4-carboxylic acid {5-[5-(3-dimethylamino-propoxy)-1H-indol-2-yl]-6-oxo-1,6-dihydro-pyridin-3-yl}-amide], the IC50 is less than 100 nM.

Consider `CCc1cccc(Cn2cc(C(=O)Nc3c[nH]c(=O)c(-c4cc5cc(OCCN(CC)CC)ccc5[nH]4)c3)cn2)c1` [Example 130, 1-(3-Ethyl-benzyl)-1H-pyrazole-4-carboxylic acid {5-[5-(2-diethylamino-ethoxy)-1H-indol-2-yl]-6-oxo-1,6-dihydro-pyridin-3-yl}-amide], for which the concentration for half-maximal inhibition (IC50) is less than 100 nM.

Turning to `Cc1ccc(Cn2cc(C(=O)Nc3c[nH]c(=O)c(-c4cc5cc(OCCN6CC(C)OC(C)C6)ccc5[nH]4)c3)cn2)cc1` (centres unmarked) [Example 131, 1-(4-Methyl-benzyl)-1H-pyrazole-4-carboxylic acid (5-{5-[2-(2,6-dimethyl-morpholin-4-yl)-ethoxy]-1H-indol-2-yl}-6-oxo-1,6-dihydro-pyridin-3-yl)-amide], the IC50 is less than 100 nM.

As to `Cc1ccc(Cn2cc(C(=O)Nc3c[nH]c(=O)c(-c4cc5cc(OCCN(C)C)ccc5[nH]4)c3)cn2)cc1` [Example 132, 1-(4-Methyl-benzyl)-1H-pyrazole-4-carboxylic acid {5-[5-(2-dimethylamino-ethoxy)-1H-indol-2-yl]-6-oxo-1,6-dihydro-pyridin-3-yl}-amide], the IC50 is less than 100 nM.

For `CCc1cccc(Cn2cc(C(=O)Nc3c[nH]c(=O)c(-c4cc5cc(OCCN6CCN(C)CC6)ccc5[nH]4)c3)cn2)c1` [Example 133, 1-(3-Ethyl-benzyl)-1H-pyrazole-4-carboxylic acid (5-{5-[2-(4-methyl-piperazin-1-yl)-ethoxy]-1H-indol-2-yl}-6-oxo-1,6-dihydro-pyridin-3-yl)-amide], the IC50 is less than 100 nM.

As for `CCc1cccc(Cn2cc(C(=O)Nc3c[nH]c(=O)c(-c4cc5cc(OCCCN6CCCCC6)ccc5[nH]4)c3)cn2)c1` [Example 134, 1-(3-Ethyl-benzyl)-1H-pyrazole-4-carboxylic acid {6-oxo-5-[5-(3-piperidin-1-yl-propoxy)-1H-indol-2-yl]-1,6-dihydro-pyridin-3-yl}-amide], the IC50 is less than 100 nM.

As for `CCc1cccc(Cn2cc(C(=O)Nc3c[nH]c(=O)c(-c4cc5cc(OCCN6CCCCC6)ccc5[nH]4)c3)cn2)c1` [Example 135, 1-(3-Ethyl-benzyl)-1H-pyrazole-4-carboxylic acid {6-oxo-5-[5-(2-piperidin-1-yl-ethoxy)-1H-indol-2-yl]-1,6-dihydro-pyridin-3-yl}-amide], the IC50 was less than 100 nM.

Turning to `CCc1cccc(Cn2cc(C(=O)Nc3c[nH]c(=O)c(-c4cc5cc(OCCCN(CC)CC)ccc5[nH]4)c3)cn2)c1` [Example 136, 1-(3-Ethyl-benzyl)-1H-pyrazole-4-carboxylic acid {5-[5-(3-diethylamino-propoxy)-1H-indol-2-yl]-6-oxo-1,6-dihydro-pyridin-3-yl}-amide], the IC50 was less than 100 nM.

On to `Cc1ccc(Cn2cc(C(=O)Nc3c[nH]c(=O)c(-c4cc5cc(OCC(C)(C)CN(C)C)ccc5[nH]4)c3)cn2)cc1` [Example 137, 1-(4-Methyl-benzyl)-1H-pyrazole-4-carboxylic acid {5-[5-(3-dimethylamino-2,2-dimethyl-propoxy)-1H-indol-2-yl]-6-oxo-1,6-dihydro-pyridin-3-yl}-amide], for which the 50% inhibitory concentration (IC50) was less than 100 nM.

For the molecule `CCc1cccc(Cn2cc(C(=O)Nc3c[nH]c(=O)c(-c4cc5cc(OCCN6CC(C)OC(C)C6)ccc5[nH]4)c3)cn2)c1` (centres unmarked) [Example 138, 1-(3-Ethyl-benzyl)-1H-pyrazole-4-carboxylic acid (5-{5-[2-(2,6-dimethyl-morpholin-4-yl)-ethoxy]1H-indol-2-yl}-6-oxo-1,6-dihydro-pyridin-3-yl)-amide], the half-inhibitory concentration (IC50) is less than 100 nM.

For `CCN(CC)CCCOc1ccc2[nH]c(-c3cc(NC(=O)c4cnn(Cc5ccccc5)c4)c[nH]c3=O)cc2c1` [Example 139, 1-Benzyl-1H-pyrazole-4-carboxylic acid {5-[5-(3-diethylamino-propoxy)-1H-indol-2-yl]-6-oxo-1,6-dihydro-pyridin-3-yl}-amide], the IC50 was less than 100 nM.

As to `CN1CCN(CCCOc2ccc3[nH]c(-c4cc(NC(=O)c5cnn(Cc6ccccc6)c5)c[nH]c4=O)cc3c2)CC1` [Example 140, 1-Benzyl-1H-pyrazole-4-carboxylic acid {5-[5-[3-(4-methyl-piperazin-1-yl)-propoxy]-1H-indol-2-yl}-6-oxo-1,6-dihydro-pyridin-3-yl)-amide], the half-inhibitory concentration (IC50) was less than 100 nM.

Take `CCN(CC)CCOc1ccc2[nH]c(-c3cc(NC(=O)c4cnn(Cc5ccccc5)c4)c[nH]c3=O)cc2c1` [Example 141, 1-Benzyl-1H-pyrazole-4-carboxylic acid {5-[5-(2-diethylamino-ethoxy)-1H-indol-2-yl]-6-oxo-1,6-dihydro-pyridin-3-yl}-amide]: the half-maximal inhibitory concentration (IC50) was less than 100 nM.

Regarding `CN(C)CCOc1ccc2[nH]c(-c3cc(NC(=O)c4cnn(Cc5ccccc5)c4)c[nH]c3=O)cc2c1` [Example 142, 1-Benzyl-1H-pyrazole-4-carboxylic acid {5-[5-(2-dimethylamino-ethoxy)-1H-indol-2-yl]-6-oxo-1,6-dihydro-pyridin-3-yl}-amide], the half-maximal inhibitory concentration (IC50) was less than 100 nM.

Turning to `O=C(Nc1c[nH]c(=O)c(-c2cc3cc(OCCCN4CCCCC4)ccc3[nH]2)c1)c1cnn(Cc2ccccc2)c1` [Example 143, 1-Benzyl-1H-pyrazole-4-carboxylic acid {6-oxo-5-[5-(3-piperidin-1-yl-propoxy)-1H-indol-2-yl]-1,6-dihydro-pyridin-3-yl}-amide], the half-maximal inhibitory concentration (IC50) was less than 100 nM.

These data come from patent US9604975B2, “Indolyl-pyridone derivatives having checkpoint kinase 1 inhibitory activity” (Vernalis (R&D) Ltd., priority 2009, dated 2017).
